Patent EP1137645B1, “ALPHA-METHYLBENZYL-CONTAINING THIOUREA INHIBITORS OF HERPES VIRUSES CONTAINING A […] GROUP” (Wyeth, priority 1998, dated 2000)
In brackets after ≈: the same amount, converted by molar mass. Where two headings read alike, the source gives them in different places.

How the values were obtained:
HSV- I = assay: HSV antiviral (ELISA) assay; type: cell-based; details: read-out: IC50 (ug/ml) HSV
Method in brief: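 Vero cells in DMEM with 2% FBS treated with compound 30 min before HSV-1 infection (MOI 0.006), then incubated ~24 h at 37°C. Viral replication measured by ELISA against glycoprotein D with β-galactosidase-linked secondary and fluorogenic substrate (ex 365/em 450 nm); IC50 relative to untreated fluorescence.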

[1] = tested on: HCMV recombinant mutant virus whose genome contains the prokaryotic beta-glucuronidase gene; assay: microbe, parasite or virus in culture; type: cell-based, human cytomegalovirus; details: Human betaherpesvirus 5, Fibroblast
Method in brief: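 Human foreskin fibroblasts infected with HCMV recombinant carrying beta-glucuronidase under a viral promoter (e.g. RV145) in presence of compound. At 96 h post-infection, lysates assayed for beta-glucuronidase by colorimetric or fluorogenic substrate as replication readout; IC50 estimated from varying compound amounts.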

VZV strain Ellen = assay: VZV antiviral (ELISA) assay; type: cell-based
Method in brief: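 HFF cells infected with VZV Ellen at multiplicity below 0.1 overnight, then mixed infected/uninfected cells seeded with compound in DMEM/2% FBS and incubated three days at 37°C, 5% CO2.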

[2] = read-out: IC50 ug/ml HCMV, HCMV, human foreskin fibroblasts
[3] = Human alphaherpesvirus 3, HFF, read-out: % inhibition 10 ug/ml VZV
[4] = Human alphaherpesvirus 3, HFF, read-out: IC50 (ug/ml) VZV
[5] = Human alphaherpesvirus 3, HFF, read-out: IC50 (ug/ml) VZV, VZV strain Ellen, HFF cells, ELISA
[6] = Human alphaherpesvirus 3, VZV strain Ellen, HFF cells, ELISA, read-out: IC50 (ug/ml) VZV

| SMILES | IC50 (HSV- I; HSV- I, Vero cells, ELISA) [µg/mL] | IC50 [1, 2] [µg/mL] | inhibition at 10 µg/mL (VZV strain Ellen; [3]) [%] | IC50 (VZV strain Ellen; [4]) [µg/mL] | IC50 (HSV- I; Vero) [µg/mL] | IC50 (VZV strain Ellen; [5]) [µg/mL] | IC50 ([1]; read-out: IC50 ug/ml HCMV) [µg/mL] | IC50 (VZV strain Ellen; [6]) [µg/mL] | inhibition at 10 µg/mL (VZV strain Ellen; Human alphaherpesvirus 3, read-out: % inhibition 10 ug/ml VZV, 10 ug/ml, VZV strain Ellen, HFF cells, ELISA) [%] |
| --- | --- | --- | --- | --- | --- | --- | --- | --- | --- |
| O=C(Nc1ccc(NC(=S)Nc2ccc(F)c(Cl)c2)cc1)c1ccccc1F [Example 922, N-{4-[3-(3-Chloro-4-fluoro-phenyl)-thioureido]-phenyl}-2-fluoro-benzamide] | 1 (≈ 2.39 µM) | > 10 | 40 | > 10 |  |  |  |  |  |
| O=C(Nc1ccc(NC(=S)Nc2cc(Br)cc(C(F)(F)F)c2)cc1)c1ccccc1F [Example 531, N-{4-[3-(3-Bromo-5-trifluoromethyl-phenyl)-thioureido]-phenyl}-2-fluoro-benzamide] |  | 5 (≈ 9.76 µM) |  |  | > 10 | 6 (≈ 11.7 µM) |  |  |  |
| COc1cc(OC)c(NC(=S)Nc2ccc(NC(=O)c3ccccc3NS(C)(=O)=O)cc2)cc1Cl [Example 191, N-{4-[3-(5-Chloro-2,4-dimethoxy-phenyl)-thioureido]-phenyl}-2-methane-sulfonylamino-benzamide] |  | > 10 | 22 |  | 8 (≈ 15 µM) | > 10 |  |  |  |
| C[C@@H](NC(=S)Nc1ccc(NC(=O)c2ccccc2F)cc1)c1ccccc1 [Example 1016, 2-Fluoro-N-{4-[3-((1R)-1-phenyl-ethyl)-thioureido]-phenyl}-benzamide] | > 10 |  |  |  |  |  | 6.4 (≈ 16.3 µM) | > 7.5 |  |
| CSc1ccc(NC(=S)Nc2ccc(NC(=O)c3ccccc3F)cc2Cl)cc1Cl [Example 460, N-{3-Chloro-4-[3-(3-chloro-4-methylsulfanyl-phenyl)-thioureido]-phenyl}-2-fluoro-benzamide] | 0.09 (≈ 0.187 µM) | 2 (≈ 4.16 µM) | 50 | > 10 |  |  |  |  |  |
| CC(NC(=S)Nc1ccc(C(=O)Nc2ccc(F)cc2)cc1)c1ccc(F)cc1 (stereo not drawn) [Example 975, N-(4-Fluoro-phenyl)-4-{3-[1-(4-fluoro-phenyl)-ethyl]-thioureido}-benzamide] | > 10 |  |  |  |  |  | > 10 | 0.87 (≈ 2.11 µM) |  |
| O=C(Nc1ccc(NC(=S)Nc2ccc(OCC(F)(F)F)cc2OCC(F)(F)F)cc1)c1ccccc1F [Example 1010, N-(4-{3-[2,4-Bis-(2,2,2-trifluoro-ethoxy)-phenyl]-thioureido}-phenyl)-2-fluoro-benzamide] | > 10 |  |  |  |  |  | > 10 | > 10 |  |
| COc1cc(OC)c(NC(=S)Nc2ccc(NC(=O)c3ccccc3)cc2)cc1Cl [Example 122, N-{4-[3-(5-Chloro-2,4-dimethoxy-phenyl)-thioureido]-phenyl}-benzamide] | 0.3 (≈ 0.679 µM) | 4 (≈ 9.05 µM) | 13 | > 10 |  |  |  |  |  |
| COc1cccc(C(=O)Nc2ccc(NC(=S)Nc3ccc(OC)c(Cl)c3)cc2)c1 [Example 819, N-{4-[3-(3-Chloro-4-methoxy-phenyl)-thioureido]-phenyl}-3-methoxy-benzamide] | 6 (≈ 13.6 µM) | 4 (≈ 9.05 µM) | 93 | 2.5 (≈ 5.66 µM) |  |  |  |  |  |
| CN(c1ccc(NC(=S)Nc2ccc(NC(=O)c3ccccc3F)cc2)cc1Cl)C1CCN(Cc2ccccc2)C1 (stereo not drawn) [Example 857, N-[4-(3-{4-[(1-Benzyl-pyrrolidin-3-yl)-methyl-amino]-3-chloro-phenyl)-thioureido)-phenyl]-2-fluoro-benzamide] | 2 (≈ 3.4 µM) | 6 (≈ 10.2 µM) | 80 | 7 (≈ 11.9 µM) |  |  |  |  |  |
| Nc1ccc(Cl)cc1NC(=S)Nc1ccc(NC(=O)c2ccccc2F)cc1 [Example 437, N-{4-[3-(2-Amino-5-chloro-phenyl)-thioureido]-phenyl}-2-fluoro-benzamide] |  | > 10 | 0 | 8 (≈ 19.3 µM) | 0.05 (≈ 0.121 µM) |  |  |  |  |
| C[C@H](NC(=S)Nc1ccc(NC(=O)c2ccccc2F)cc1)c1ccc(Cl)cc1 [Example 1015, N-(4-{3-[(1S)-1-(4-Chloro-phenyl)-ethyl]-thioureido}-phenyl)-2-fluoro-benzamide] |  | 2.5 (≈ 5.84 µM) |  |  | > 10 | 0.03 (≈ 0.0701 µM) |  |  |  |
| CC(C)(C)c1cccc(NC(=S)Nc2ccc(NC(=O)c3ccccc3F)cc2)c1 [Example 869, N-{4-[3-(3-tert-Butyl-phenyl)-thioureido]-phenyl}-2-fluoro-benzamide] | 5.5 (≈ 13 µM) | 2.5 (≈ 5.93 µM) | 77 | 3 (≈ 7.12 µM) |  |  |  |  |  |
| CC(NC(=S)Nc1ccc(NC(=O)c2ccccc2F)cc1)c1ccc(C(F)(F)F)cc1 (stereo not drawn) [Example 787, 2-Fluoro-N-(4-{3-[1-(4-trifluoromethyl-phenyl)-ethyl]-thioureido}-phenyl)-benzamide] | > 10 |  |  |  |  |  | 1.2 (≈ 2.6 µM) | > 7.5 |  |
| Cc1ccccc1C(=O)Nc1ccc(NC(=S)Nc2ccc(N(C)C3CCCCC3)c(Cl)c2)cc1 [Example 247, N-(4-{3-[3-Chloro-4-(cyclohexyl-methyl-amino)-phenyl]-thioureido}-phenyl)-2-methyl-benzamide] | > 10 | > 10 | 74 | 5 (≈ 9.86 µM) |  |  |  |  |  |
| CC(NC(=S)Nc1ccc(NC(=O)c2ccccc2F)cc1)c1ccc(N(C)C)cc1 (stereo not drawn) [Example 793, N-(4-{3-[1-(4-Dimethylamino-phenyl)-ethyl]-thioureido}-phenyl)-2-fluoro-benzamide] |  | 3.2 (≈ 7.33 µM) |  |  | 9 (≈ 20.6 µM) | 3.1 (≈ 7.1 µM) |  |  |  |
| O=C(Nc1ccc(NC(=S)Nc2cc(Cl)cc(Cl)c2)cc1)c1ccccc1F [Example 934, N-{4-[3-(3,5-Dichloro-phenyl)-thioureido]-phenyl}-2-fluoro-benzamide] | > 10 | > 10 | 18 | > 10 |  |  |  |  |  |
| O=C(Nc1ccc(NC(=S)Nc2ccc(SC3CCCCC3)c(Cl)c2)cc1)c1ccccc1F [Example 357, N-{4-[3-(3-Chloro-4-cyclohexylsulfanyl-phenyl)-thioureido]-phenyl}-2-fluoro-benzamide] | > 10 | 9 (≈ 17.5 µM) | 44 | 40 (≈ 77.8 µM) |  |  |  |  |  |
| O=C(Nc1ccc(NC(=S)Nc2cccc(S(=O)(=O)CCO)c2)cc1)c1ccccc1F [Example 969, 2-Fluoro-N-(4-{3-[3-(2-hydroxy-ethanesulfonyl)-phenyl]-thioureido}-phenyl)-benzamide] | > 10 | > 10 | 19 | > 10 |  |  |  |  |  |
| COc1cc(OC)c(NC(=S)Nc2ccc(NC(=O)c3ccccc3F)cc2Cl)cc1Cl [Example 355, N-{3-Chloro-4-[3-(5-chloro-2,4-dimethoxy-phenyl)-thioureido]-phenyl}-2-fluoro-benzamide] | 0.035 (≈ 0.0708 µM) | > 10 | 40 | > 10 |  |  |  |  |  |
| CC(NC(=S)Nc1ccc(NC(=O)c2cccc(Cl)c2)cc1)c1ccc(F)cc1 (stereo not drawn) [Example 761, 3-Chloro-N-(4-{3-[1-(4-fluoro-phenyl)-ethyl]-thioureido}-phenyl)-benzamide] |  | 1.5 (≈ 3.51 µM) |  |  | 10 (≈ 23.4 µM) | > 10 |  |  |  |
| Cc1ccc(C(C)NC(=S)Nc2ccc(NC(=O)c3ccccc3F)cc2)cc1 (stereo not drawn) [Example 782, 2-Fluoro-N-{4-[3-(1-p-tolyl-ethyl)-thioureido]-phenyl}-benzamide] |  | 0.9 (≈ 2.21 µM) |  |  | > 10 | 3 (≈ 7.36 µM) |  |  |  |
| COc1cc(C)c(Cl)cc1NC(=S)Nc1ccc(NC(=O)c2ccccc2F)cc1 [Example 849, N-{4-[3-(5-Chloro-2-methoxy-4-methyl-phenyl)-thioureido]-phenyl}-2-fluoro-benzamide] | > 10 | > 10 | 38 | > 10 |  |  |  |  |  |
| COc1ccccc1C(=O)Nc1ccc(NC(=S)Nc2cc(Cl)c(OC)c(Cl)c2)cc1 [Example 873, N-{4-[3-(3,5-Dichloro-4-methoxy-phenyl)-thioureido]-phenyl}-2-methoxy-benzamide] | > 10 | 0.3 (≈ 0.63 µM) | 23 | > 10 |  |  |  |  |  |
| CCOc1ccc(NC(=S)Nc2ccc(NC(=O)c3ccccc3F)cc2)cc1Cl [Example 806, N-{4-[3-(3-Chloro-4-ethoxy-phenyl)-thioureido]-phenyl}-2-fluoro-benzamide] |  | > 10 |  |  | > 10 | > 7.5 |  |  |  |
| O=C(Nc1ccc(NC(=S)Nc2ccc(Br)c(Cl)c2)cc1)c1ccccc1F [Example 915, N-{4-[3-(4-Bromo-3-chloro-phenyl)-thioureido]-phenyl}-2-fluoro-benzamide] | > 10 |  |  |  |  |  | > 10 | > 10 | 29 |
| COc1cc(OC)c(NC(=S)Nc2ccc(NC(=O)c3cc(F)ccc3F)cc2)cc1Cl [Example 187, N-{4-[3-(5-Chloro-2,4-dimethoxy-phenyl)-thioureido]-phenyl}-2,5-difluoro-benzamide] | 0.2 (≈ 0.418 µM) | > 10 | 53 | > 10 |  |  |  |  |  |
| COc1cc(OC)c(NC(=S)Nc2ccc(NC(=O)c3ccc(F)cc3F)cc2)cc1Cl [Example 188, N-{4-[3-(5-Chloro-2,4-dimethoxy-phenyl)-thioureido]-phenyl}-2,4-difluoro-benzamide] | 1.2 (≈ 2.51 µM) | > 10 | 22 | > 10 |  |  |  |  |  |
